The test system of one data set is IL-6. Nature of the data set: In vitro measurement of IL-6 in LPS-stimulated human PBMC. In kind it is cell-based. Conditions: LPS 1 μg/ml, 18 h. Here is the method:
This assay determines the effect of test compounds on the production of IL-6 in human PBMC (Physiol. Res. 52: 593-598, 2003). Compounds were tested for their ability to inhibit the activity of IL-6 in human PBMC. PBMC were isolated from blood using BD Vacutainer CPT™ Cell preparation tube (BD Bio Science) and suspended in RPMI medium. The test compounds were pre-incubated with PBMC (0.5 million/incubation well) for 15 minutes at 37° C. and then stimulated with Lipopolysaccharide (Escherichia coli: B4; 1 μg/ml) for 18 h at 37° C. in 5% CO2. The levels of IL-6 in cell culture medium were estimated using enzyme linked Immunosorbent assay performed in a 96 well format as per the procedure of the manufacturer (Cayman Chemical, Ann Arbor, USA).

Data set [1] relates to TNF-α. The data set can be described thus: In vitro measurement of TNF-α in LPS-stimulated human PBMC. In kind it is cell-based. Conditions: LPS 1 μg/ml, 18 h. Here is the method: This assay determines the effect of test compounds on the production of TNF α in human Peripheral Blood Mononuclear Cells (PBMC). Compounds were tested for their ability to inhibit the activity of TNF α in human PBMC. PBMC were isolated from blood (from healthy volunteers) using BD Vacutainer CPT™ (Cell preparation tube, BD Bio Science) and suspended in RPMI medium (Physiol. Res. 52: 593-598, 2003). The test compounds were pre-incubated with PBMC (0.5 million/incubation well) for 15 minutes at 37° C. and then stimulated with Lipopolysaccharide (Escherichia coli: B4; 1 μg/ml) for 18 h at 37° C. in 5% CO2. The levels of TNFα in cell culture medium were estimated using enzyme linked Immunosorbent assay performed in a 96 well format as per the procedure of the manufacturer (Cayman Chemical, Ann Arbor, USA).

Data set [2] has as its system TNF-α. Nature of the data set: LPS induced sepsis for measurement of TNF-α inhibition in mice. In kind it is in vivo. Conditions: oral, serum 90 min after LPS. Here is the method: The LPS induced sepsis model in mice was performed as described by Les sekut et al (J Lab Clin Med 1994; 124:813-20). Female Swiss albino mice were selected and the body weights were equivalent within each group. The mice were fasted for 20 hours with free access to water. The mice were dosed orally with the test compound suspended in vehicle containing 0.5% Tween 80 in 0.25% Carboxy-methylcellulose sodium salt. The control mice were administered the vehicle alone. After 30 min of oral dosing, mice were injected with 500 μg of Lipopolysaccharide (Escherichia coli, LPS: B4 from Sigma) in phosphate buffer saline solution into the intraperitoneal cavity of the mice. After 90 min of LPS administration mice were bled via retro-orbital sinus puncture. Blood samples were stored overnight at 4° C. Serum samples were collected by centrifuging the samples at 400 rpm for 15 min at 4° C. Immediately the serum samples were analysed for TNFα levels using commercially available mouse TNF-α ELISA kit (Amersham Biosciences) and assay was performed by the manufacturer instruction.

A further data set addresses T1, COX-2 (Homo sapiens, UniProt P35354).
T1 construct: Fresh blood was collected in tubes containing sodium heparin by vein puncture from healthy male volunteers; endogenous in cells; host or cells: human whole blood from healthy male volunteers, aspirin-pretreated and LPS-stimulated
T1 sequence (P35354 18-604): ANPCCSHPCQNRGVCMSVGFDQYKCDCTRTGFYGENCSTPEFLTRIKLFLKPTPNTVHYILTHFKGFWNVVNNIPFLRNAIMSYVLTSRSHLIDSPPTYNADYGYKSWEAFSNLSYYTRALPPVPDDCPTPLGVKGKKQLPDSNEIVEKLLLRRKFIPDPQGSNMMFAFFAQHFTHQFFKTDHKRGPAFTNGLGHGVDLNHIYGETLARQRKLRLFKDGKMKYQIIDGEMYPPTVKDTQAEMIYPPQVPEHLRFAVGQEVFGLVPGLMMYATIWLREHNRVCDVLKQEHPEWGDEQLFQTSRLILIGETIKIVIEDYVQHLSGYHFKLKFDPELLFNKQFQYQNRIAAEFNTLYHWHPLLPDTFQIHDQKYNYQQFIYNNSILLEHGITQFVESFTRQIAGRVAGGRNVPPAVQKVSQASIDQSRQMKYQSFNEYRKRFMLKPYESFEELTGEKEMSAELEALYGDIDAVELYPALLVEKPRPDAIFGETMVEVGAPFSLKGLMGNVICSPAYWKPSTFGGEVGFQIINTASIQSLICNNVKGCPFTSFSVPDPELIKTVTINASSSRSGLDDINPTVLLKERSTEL
Nature of the data set: Human whole blood assay (LPS-induced PGE2, COX-2 inhibition). In kind it is cell-based. To be noted: LPS stimulated. Here is the method: Human whole blood provides a protein and cell rich milieu appropriate for the study of biochemical efficacy of anti-inflammatory compounds such as selective COX-2 inhibitors. […] This is correlating with the observation that COX-2 inhibitors have no effect on prostaglandin E2 (PGE2) production in normal blood. These inhibitors were active only after incubation of human blood with lipopolysaccharide (LPS), which induces COX-2 production in the blood.
Fresh blood was collected in tubes containing sodium heparin by vein puncture from healthy male volunteers. The subjects should have no apparent inflammatory conditions and not taken NSAIDs for at least 7 days prior to blood collection. Blood was preincubated with aspirin in vitro (12 μg/ml, at time zero) to inactivate COX-1 for 6 hours. Then test compounds (at various concentrations) or vehicle were added to blood. After that blood was stimulated with LPS B:4 (10 μg/ml) and incubated for another 18 h at 37° C. water bath. After which the blood was centrifuged, plasma was separated and stored at −80° C. (J. Pharmacol. Exp. Ther, 271, 1705, 1994; Proc. Natl. Acad. Sci. USA, 96, 7563, 1999). The plasma was assayed for PGE2 using Cayman ELISA kit as per the procedure outlined by the manufacturer (Cayman Chemicals, Ann Arbor, USA).

Data set [3] addresses T2, purified recombinant COX-1 (Ovis aries, UniProt P05979).
T2 sequence (P05979 25-600): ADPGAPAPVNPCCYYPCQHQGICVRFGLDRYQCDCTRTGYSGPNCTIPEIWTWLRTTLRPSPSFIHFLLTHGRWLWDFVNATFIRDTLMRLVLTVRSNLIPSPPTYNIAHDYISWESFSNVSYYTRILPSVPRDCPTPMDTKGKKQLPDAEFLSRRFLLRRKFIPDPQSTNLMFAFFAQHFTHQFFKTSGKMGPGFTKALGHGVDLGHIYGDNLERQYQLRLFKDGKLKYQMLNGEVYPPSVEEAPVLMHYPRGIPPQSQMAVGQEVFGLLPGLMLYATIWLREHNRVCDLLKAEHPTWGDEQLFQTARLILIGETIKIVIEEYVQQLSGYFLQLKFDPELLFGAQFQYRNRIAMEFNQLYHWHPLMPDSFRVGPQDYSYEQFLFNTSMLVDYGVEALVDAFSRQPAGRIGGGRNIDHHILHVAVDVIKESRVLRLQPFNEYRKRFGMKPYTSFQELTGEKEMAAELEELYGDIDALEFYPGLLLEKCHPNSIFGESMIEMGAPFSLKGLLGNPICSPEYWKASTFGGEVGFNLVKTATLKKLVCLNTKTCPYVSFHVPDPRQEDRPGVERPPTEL
The data set can be described thus: COX-1 enzyme based assay. In kind it is biochemical. Here is the method:
(§1) COX-1 and COX-2 enzyme based assays were carried out to check the inhibitory potential of test compounds on the production of prostaglandin by purified recombinant COX-1/COX-2 enzyme (Proc. Nat. Acad. Sci. USA, 88, 2692-2696, 1991; J. Clin. Immunoassay 15, 116-120, 1992) In this assay, the potential of test compound to inhibit the production of prostaglandin either by COX-1 or COX-2 from arachidonic acid (substrate) was measured. This was an enzyme based in-vitro assay to evaluate selective COX inhibition with good reproducibility.
(§2) Arachidonic acid was converted to PGH2 (Intermediate product) by COX1/COX-2 in presence or absence of the test compound. The reaction was carried out at 37° C. and after 2 minutes it was stopped by adding 1M HCl. Intermediate product PGH2 was converted to a stable prostanoid product PGF2α by SnCl2 reduction. The amount of PGF2α produced in the reaction was inversely proportional to the COX inhibitory potential of the test compound. The prostanoid product was quantified via enzyme immunoassay (EIA) using a broadly specific antibody that binds to all the major forms of prostaglandin, using Cayman ELISA kit as per the procedure outlined by the manufacturer (Cayman Chemicals, Ann Arbor, USA).

In data set [4] the target is T3, purified recombinant COX-2 (Homo sapiens, UniProt P35354).
T3 sequence (P35354 18-604): T1 sequence (P35354 18-604)
Nature of the data set: COX-2 enzyme based assay. In kind it is biochemical. Here is the method:
as §1, §2

Each structure is given as a SMILES string.

As a reminder, the inhibition is the drop in the measured response relative to a control, in per cent. Consider `CSc1ccc(-c2nc3[nH]nc(N)c3c(=O)n2-c2ccc(Br)cc2)cc1` [Example 19, 3-Amino-5-(4-bromophenyl)-6-[(4-methylthio)phenyl]-1,5-dihydro-4H-pyrazolo[3,4-d]pyrimidin-4-one], for which 1 µM produced 15.9% inhibition with IL-6. 10 µM produced 64.8% inhibition with TNF-α [1].

Consider `CSc1ccc(-c2nc3c(c(N)nn3C)c(=O)n2-c2ccc(Cl)cc2)cc1` [Example 24, 3-Amino-5-(4-chlorophenyl)-1-methyl-6-[4-(methylthio)phenyl]-1,5-dihydro-4H-pyrazolo[3,4-d]pyrimidin-4-one], for which the “TNF-α Inhibition (%)” value in the data set with TNF-α [2] (at 50 mg/kg) is 91.99 (at 50 mg/kg) %. Besides, the inhibition at 10 µM with TNF-α [1] was 87.9%.

For orientation: melting point means the temperature, or range, at which the solid turns liquid. Regarding `CSc1ccc(-c2nc3[nH]nc(N)c3c(=O)n2-c2ccc(C)cc2)cc1` [Example 1, 3-amino-5-(4-methylphenyl)-6-[4-(methylthio)phenyl]-1,5-dihydro-4H-pyrazolo[3,4-d]pyrimidin-4-one], the melting point was > 285 °C. On COX-2 (0.25 μM), the inhibition at 0.25 µM worked out at 20.3%. At COX-2 (10 μM), this molecule showed an inhibition at 10 µM of 41.6%.

As for `CSc1ccc(-c2nc3c(c(NC(=O)C(F)(F)F)nn3C)c(=O)n2-c2ccc(C)cc2C)cc1` [Example 40, 2,2,2-trifluoro-N-{5-(2,4-dimethylphenyl)-1-methyl-6-[4-(methylthio)phenyl]-4-oxo-4,5-dihydro-1H-pyrazolo[3,4-d]pyrimidin-3-yl}acetamide], the inhibition at 10 µM in data set [3] (Conc. 10 μM) was 3.11%; in data set [4] (Conc. 10 μM), 15.5%; in the data set on TNF-α [1], 78%.

Take `CSc1ccc(-c2nc3c(c(N)nn3C)c(=O)n2-c2ccc(C(C)C)cc2)cc1` [Example 22, 3-Amino-5-(4-isopropylphenyl)-1-methyl-6-[4-(methylthio)phenyl]-1,5-dihydro-4H-pyrazolo[3,4-d]pyrimidin-4-one]: in the data set with IL-6, testing at 1 µM gave an inhibition of 12%. In addition, the inhibition at 10 µM with TNF-α [1] is 54%.

For the molecule `CCOc1ccc(-n2c(-c3ccc(SC)cc3)nc3c(c(N)nn3C)c2=O)cc1` [Example 21, 3-Amino-5-(4-ethoxyphenyl)-1-methyl-6-[4-(methylthio)phenyl]-1,5-dihydro-4H-pyrazolo[3,4-d]pyrimidin-4-one], in the data set with TNF-α [2] (at 50 mg/kg), the “TNF-α Inhibition (%)” value was 75.15 (at 50 mg/kg) %. In the data set on TNF-α [1], this molecule displayed an inhibition at 10 µM of 75.1%.

For the molecule `CSc1ccc(-c2nc3c(c(N)nn3C)c(=O)n2-c2ccc(C)cc2C)cc1` [Example 23, 3-Amino-5-(2,4-dimethylphenyl)-1-methyl-6-[4-(methylthio)phenyl]-1,5-dihydro-4H-pyrazolo[3,4-d]pyrimidin-4-one], in data set [3] (Conc. 1 μM), the inhibition at 1 µM is 51.6%. The “COX-2 Inhibition (%)” value in data set [4] (Conc. 1 μM) is on record as “Not Active”. Besides, in the data set on TNF-α [2] (at 5 mg/kg), the “TNF-α Inhibition (%)” value is on record as 92.02 (at 5 mg/kg) %. This molecule also returned an inhibition at 10 µM in the data set on TNF-α [1] of 86.3%.

With `CSc1ccc(-c2nc3[nH]nc(NC(C)=O)c3c(=O)n2-c2ccc(C)c(C)c2)cc1` [Example 36, N-[5-(3,4-Dimethylphenyl)-4-oxo-6-[(4-methylthio)phenyl]-4,5-dihydro-1H-pyrazolo[3,4-d]pyrimidin-3-yl]acetamide], testing at 1 µM with IL-6 gave an inhibition of 12.7%. In the data set on TNF-α [1], this molecule gave an inhibition at 10 µM of 29.9%.
